Laboratory results taken from patent publication US10829491B2, “Pyrimido[5,4-B]indolizine or pyrimido[5,4-B]pyrrolizine compound, preparation method and use thereof” (SHANGHAI INSTITUTE OF MATERIA MEDICA, CHINESE ACADEMY OF …, priority 2016, dated 2020).
Read-outs that look alike come from different tables or passages of the source.

Tests used:
[1] = test system: human B lymphoma Ramos cells; assay: In vitro proliferation inhibition of Ramos cells (MTT); format: cell-based; settings: for IC50: Homo sapiens, Ramos cells, 48 hours, MTT
Procedure: (§1) Cells were seeded at 10000-15000/well into a 96-well culture plate, different concentrations of a test compound were added to each well (3 replicate-wells for each concentration), and blank control, positive compound control and negative control were provided. 48 hours after the administration of the drugs, […] of MTT (5 mg/ml) was added, and the plate was incubated at 37° C. for 4 h, and then […] of a triad solution (10% SDS, 5% isobutanol, 0.01 M HCl) was added. The resultant was cultured at 37° C. overnight, and the OD value was measured at a wavelength of 570 nm using a wavelength-tunable microplate reader ELISA SPECTRA MAX 190. […] The IC50 value was calculated by fitting the inhibition curve using a four-parameter method. The experiment was repeated 3 times independently.

[2] = target: BTK tyrosine kinase protein (Homo sapiens (Human), UniProt Q06187); assay: Inhibitory activity against Bruton kinase (BTK) at molecular level (ELISA); format: biochemical
BTK tyrosine kinase protein, sequence (Q06187 whole entry): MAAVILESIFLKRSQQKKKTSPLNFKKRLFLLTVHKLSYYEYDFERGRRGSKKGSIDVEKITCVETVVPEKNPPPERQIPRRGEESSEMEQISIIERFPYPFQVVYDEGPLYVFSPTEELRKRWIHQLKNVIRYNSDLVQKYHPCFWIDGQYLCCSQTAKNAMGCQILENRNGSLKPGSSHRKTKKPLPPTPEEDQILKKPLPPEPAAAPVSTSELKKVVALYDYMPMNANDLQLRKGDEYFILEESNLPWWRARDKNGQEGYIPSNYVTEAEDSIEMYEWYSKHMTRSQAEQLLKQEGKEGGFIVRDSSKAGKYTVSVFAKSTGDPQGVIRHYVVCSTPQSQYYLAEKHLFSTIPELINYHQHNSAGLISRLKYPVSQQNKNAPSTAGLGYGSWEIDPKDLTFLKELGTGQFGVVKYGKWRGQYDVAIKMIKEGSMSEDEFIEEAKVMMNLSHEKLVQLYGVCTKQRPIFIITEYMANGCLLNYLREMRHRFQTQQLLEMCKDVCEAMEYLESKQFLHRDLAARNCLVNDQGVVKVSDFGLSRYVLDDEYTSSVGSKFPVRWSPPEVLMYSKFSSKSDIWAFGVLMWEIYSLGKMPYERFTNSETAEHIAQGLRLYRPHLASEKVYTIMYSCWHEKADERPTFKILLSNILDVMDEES
Procedure: Poly(Glu, Tyr) 4:1 as a substrate for enzyme catalyzed reaction was diluted with potassium-free PBS (10 mM sodium phosphate buffer, 150 mM NaCl, pH 7.2-7.4) to […] to coat a ELISA plate. The plate was cultured at 37° C. for 12-16 h, washed with 200 μL/well of T-PBS (PBS containing 0.1% of Tween-20) three times, and dried in an oven at 37° C. for 1-2 h. Into the above ELISA plate coated with the substrate, an ATP solution diluted with a reaction buffer (50 mM HEPES, pH 7.4, 50 mM MgCl2, 5 mM MnCl2, 0.2 mM Na3VO4, 1 mM DTT) was first added at 50 μL/well (concentration of 10 μM). Then, a test compound diluted by 1% DMSO to a suitable concentration was added (10 μL/well), and negative control well and positive compound control well were provided separately. Finally, the reaction was initiated by adding BTK tyrosine kinase protein diluted in 40 μL of reaction buffer.
The above reaction system was placed on a shaker (100 rpm) at 37° C. for 1 h, then washed with T-PBS for three times, primary antibody PY99 (Cell Signaling Technology) was added at 100 μL/well, and the reaction was conducted on the shaker at 37° C. for 0.5 h. After the plate was washed with T-PBS, secondary antibody horseradish peroxidase-labeled goat anti-mouse IgG was added at 100 μL/well, and the reaction was conducted on the shaker at 37° C. for 0.5 h. After the plate was washed with T-PBS, 2 mg/mL of OPD developing solution was added at 100 μL/well, and the reaction was conducted in the dark at 25° C. for 1 to 10 minutes. Then the reaction was quenched by adding 2 M H2SO4 at 50 μL/well. The data were read on a wavelength-tunable microplate reader ELISA SPECTRA MAX 190 at a wavelength of 490 nm.
IC50 was calculated by fitting the inhibition curve using a four-parameter method.

[3] = test system: human diffuse large B lymphoma TMD8 cells; assay: In vitro proliferation inhibition of TMD8 cells (MTT); format: cell-based; settings: 48 hours, read-out: IC50 for the inhibition TMD of cells
Procedure: as §1, with “added.” for “added. The resultant was cultured at 37° C. overnight, and the OD value was measured at a wavelength of 570 nm using a wavelength-tunable microplate reader ELISA SPECTRA MAX 190.”

[4] = BTK kinase ELISA, ATP 10 μM, read-out: IC50

| SMILES | IC50 [1] [nM] | IC50 [2, 4] [nM] | also measured |
| --- | --- | --- | --- |
| C=CC(=O)NC1CCc2c(-c3ccc(Oc4ccccc4)cc3)c3c(N)ncnc3n2C1 (racemic) [Compound S3, N-(4-amino-5-(4-phenoxyphenyl)-6,7,8,9-tetrahydropyrimido[5,4-b]indolizine-8-yl)acrylamide] | 11400 ± 800 |  |  |
| C=CS(=O)(=O)N[C@@H]1CCc2c(-c3ccc(Oc4ccccc4)cc3)c3c(N)ncnc3n2C1 [Compound S9, (R)—N-(4-amino-5-(4-phenoxyphenyl)-6,7,8,9-tetrahydropyrimido[5,4-b]indolizine-8-yl)vinylsulfamide] |  | 10 to 100 |  |
| C=CC(=O)NC(C)C(=O)N[C@@H]1CCc2c(-c3ccc(Oc4ccccc4)cc3)c3c(N)ncnc3n2C1 (stereo partly drawn) [Compound S7, N-(1-(((R)-4-amino-5-(4-phenoxyphenyl)-6,7,8,9-tetrahydropyrimido[5,4-b]indolizine-8-yl)imino)-1-oxoprop-2-yl) acrylamide] |  | 10 to 100 |  |
| C=CC(=O)N1CCC[C@@H](n2nc(-c3ccc(Oc4ccccc4)cc3)c3c(N)ncnc32)C1 [Ibrutinib, reference compound] | ~8530 |  | IC50 [3]: 4.5 nM |
| C=CC(=O)NC1(C(=O)N[C@@H]2CCc3c(-c4ccc(Oc5ccccc5)cc4)c4c(N)ncnc4n3C2)CC1 [Compound S8, (R)-1-acrylamido-N-(4-amino-5-(4-phenoxyphenyl)-6,7,8,9-tetrahydropyrimido[5,4-b]indolizine-8-yl)cyclopropanecarboxamide] |  | > 100 |  |
| CC#CC(=O)N[C@@H]1CCc2c(-c3ccc(Oc4ccccc4)cc3)c3c(N)ncnc3n2C1 [Compound S10, (R)—N-(4-amino-5-(4-phenoxyphenyl)-6,7,8,9-tetrahydropyrimido[5,4-b]indolizine-8-yl)But-2-ynylamide] | 8720 ± 8580 |  | IC50 [2]: 1 to 10 nM; IC50 [3]: 30 nM |
| C=CC(=O)N[C@H]1Cn2c(c(-c3ccc(C(=O)Nc4ccccn4)cc3)c3c(N)ncnc32)C1=C [Compound S20, (R)-4-(7-acrylamido-4-amino-6-methylidene-7,8-dihydro-6H-pyrimido[5,4-b]pyrrolizin-5-yl)-N-(pyridin-2-yl)benzamide] |  | 1 to 10 |  |
| C=CC(=O)N[C@@H]1CCc2c(-c3ccc(Oc4ccccc4)cc3)c3c(N)ncnc3n2C1 [Compound S1, (R)—N-(4-amino-5-(4-phenoxyphenyl)-6,7,8,9-tetrahydropyrimido[5,4-b]indolizine-8-yl)acrylamide] | 94700 ± 45100 |  | IC50 [3]: 5.8 nM; cell activity against human B lymphoma Ramos cells ([1]; qualitative statement): low cell activity |
| C=C1c2c(-c3ccc(Oc4ccccc4)cc3)c3c(N)ncnc3n2C[C@@H]1NC(=O)C#CC [Compound S19, (R)—N-(4-amino-6-methylidene-5-(4-phenoxyphenyl)-7,8-dihydro-6H-pyrimido[5,4-b]pyrrolizin-7-yl)but-2-ynylamide] | 16900 ± 7900 |  | IC50 [2]: < 1 nM |
| C=CC(=O)N[C@@H]1CCc2c(-c3ccc(C(=O)Nc4cc(C(F)(F)F)ccn4)cc3)c3c(N)ncnc3n2C1 [Compound S16, (R)-4-(8-acrylamido-4-amino-6,7,8,9-tetrahydropyrimido[5,4-b]indolizine-5-yl)-N-(4-(trifluoromethyl)pyridin-2-yl)benzamide] |  | 1 to 10 |  |
| CC(C)(C)C=C(C#N)C(=O)N[C@@H]1CCc2c(-c3ccc(Oc4ccccc4)cc3)c3c(N)ncnc3n2C1 [Compound S4, (R)—N-(4-amino-5-(4-phenoxyphenyl)-6,7,8,9-tetrahydropyrimido[5,4-b]indolizine-8-yl)-2-cyano-4,4-dimethylpent-2-enamide] |  | > 100 |  |

Continued, in another order:

| IC50 [1] [nM] | IC50 [2, 4] [nM] | SMILES | also measured |
| --- | --- | --- | --- |
|  | 1 to 10 | C=CC(=O)N[C@H]1Cn2c(c(-c3ccc(Oc4ccccc4)cc3)c3c(N)ncnc32)C1C (stereo partly drawn) [Compound S21, N-((7R)-4-amino-6-methyl-5-(4-phenoxyphenyl)-7,8-dihydro-6H-pyrimido[5,4-b]pyrrolizin-7-yl)acrylamide] |  |
|  | 1 to 10 | C=CC(=O)N[C@@H]1CCc2c(-c3ccc(C(=O)Nc4ccccn4)cc3)c3c(N)ncnc3n2C1 [Compound S13, (R)-4-(8-acrylamido-4-amino-6,7,8,9-tetrahydropyrimido[5,4-b]indolizine-5-yl)-N-(pyridin-2-yl)benzamide] |  |
|  | 1 to 10 | C=CC(=O)N[C@H]1Cn2c(c(-c3ccc(Oc4ccccc4)cc3)c3c(N)ncnc32)C1=C [Compound S18, (R)—N-(4-amino-6-methylidene-5-(4-phenoxyphenyl)-7,8-dihydro-6H-pyrimido[5,4-b]pyrrolizin-7-yl)acrylamide] |  |
|  | < 1 | C=CC(=O)N[C@@H]1CCc2c(-c3ccc(Oc4ccc(F)cc4)cc3)c3c(N)ncnc3n2C1 [Compound S11, (R)—N-(4-amino-5-(4-(4-fluorophenoxy)phenyl)-6,7,8,9-tetrahydropyrimido[5,4-b]indolizine-8-yl)acrylamide] |  |
|  | 1 to 10 | C=CC(=O)N[C@H]1Cn2c(c(-c3ccc(C(=O)Nc4ccccn4)cc3)c3c(N)ncnc32)C1C (stereo partly drawn) [Compound S22, 4-((7R)-7-acrylamido-4-amino-6-methyl-7,8-dihydro-6H-pyrimido[5,4-b]pyrrolizin-5-yl)-N-(pyridin-2-yl)benzamide] |  |
| 5500 ± 1000 | 1 to 10 | C=CC(=O)NCC(=O)N[C@@H]1CCc2c(-c3ccc(Oc4ccccc4)cc3)c3c(N)ncnc3n2C1 [Compound S6, (R)—N-(2-((4-amino-5-(4-phenoxyphenyl)-6,7,8,9-tetrahydropyrimido[5,4-b]indolizine-8-yl)amino)-2-oxoethyl)acrylamide] |  |
|  | 1 to 10 | CC#CC(=O)N[C@@H]1CCc2c(-c3ccc(C(=O)Nc4ccccn4)cc3)c3c(N)ncnc3n2C1 [Compound S14, (R)-4-(4-amino-8-(but-2-ynylamide)-6,7,8,9-tetrahydropyrimido[5,4-b]indolizine-5-yl)-N-(pyridin-2-yl)benzamide] |  |
|  | < 1 | C=CC(=O)N[C@@H]1CCc2c(-c3ccc(Oc4ccc(C(F)(F)F)cc4)cc3)c3c(N)ncnc3n2C1 [Compound S12, (R)—N-(4-amino-5-(4-(4-(trifluoromethyl)phenoxy)phenyl)-6,7,8,9-tetrahydropyrimido[5,4-b]indolizine-8-yl)acrylamide] |  |
| 6600 ± 2100 | < 1 | CN(C)C/C=C/C(=O)N[C@@H]1CCc2c(-c3ccc(Oc4ccccc4)cc3)c3c(N)ncnc3n2C1 [Compound S5, (R,E)-N-(4-amino-5-(4-phenoxyphenyl)-6,7,8,9-tetrahydropyrimido[5,4-b]indolizine-8-yl)-4-(dimethylamino)but-2-enamide] |  |
|  | 1 to 10 | C=CC(=O)N[C@@H]1CCc2c(-c3ccc(C(=O)N[C@@H](COC)c4ccccc4)cc3)c3c(N)ncnc3n2C1 [Compound S17, 4-((R)-8-acrylamido-4-amino-6,7,8,9-tetrahydropyrimido[5,4-b]indolizine-5-yl)-N—((R)-2-methoxy-1-phenylethyl)benzamide] |  |
|  | 1 to 10 | C=CC(=O)N[C@@H]1CCc2c(-c3ccc(C(=O)Nc4ccc(F)cn4)cc3)c3c(N)ncnc3n2C1 [Compound S15, (R)-4-(8-acrylamido-4-amino-6,7,8,9-tetrahydropyrimido[5,4-b]indolizine-5-yl)-N-(5-fluoropyridin-2-yl)benzamide] |  |
